Measurements published in patent publication US20260144769A1, “4-PHENYLBUTYRATE RESTORED GABA UPTAKE AND REDUCED SEIZURES IN SLC6A1 VARIANT-MEDIATED DISORDERS” (Vanderbilt University, priority 2022, published 2026).

Tested on: GAT-1
Experiment: 3H GABA uptake, cultured cortical neurons from the knockin mice
Type: cell-based, mouse
Details: PBA 2 mM, 24 hr
Description: FIGS. 7C-D show neurons directly cultured in the 35-mm^2 dishes and GABA uptake was evaluated between day 15-17 days after culture. CI-966 (50 μM) and NNC711 (35 μM) was applied 30 min before preincubation and removed during preincubation. GAT-3 inhibitor SNAP5114 (30 μM) was applied during GABA uptake to make sure only GAT-1 activity was measured. The wildtype astrocytes (FIGS. 7A-B) or cortical neurons (FIGS. 7C-D) of either SLC6A1^+/A288V or SLC6A1^+/S295L were taken as 1. The cultures derived from each mutant mouse was compared to the culture from its own wildtype littermates. […] The wildtype data were pooled from two mouse lines. […] The graph represents the relative GABA uptake level normalized to cells of its own genotype treated with DMSO. CI-966 (50 μM) or NNC-711 (35 μM) was applied 30 min before preincubation and removed during preincubation. Two-way analysis of variance followed by Bonferroni multiple comparison test was used. Values were expressed as mean±S.E.M. In FIG. 7A and FIG. 7C, ***p<0.001 vs. wt; § § § P<0.001 S295L vs. A288V. […]
Briefly, cells were cultured in […] dishes for 3 days before the GABA uptake experiment in DMEM with 10% fetal bovine serum and 1% penicillin/streptomycin. […] Glacial acetic acid was added, and lysates were then determined on a liquid scintillator with QuantaSmart. […]

## O=C(O)CCCc1ccccc1 [PBA, 4-phenylbutyric acid]
  GABA uptake in PBA treated cells: upregulation
